System: LDL
Assay: Removal of 13-HPODE and 15-HPETE from LDL (RP-HPLC, mass spectrometry)
Set-up: species or system human
Conditions: LDL 1 mg/ml with apo A-I 100 μg/ml, 2 hrs
Procedure: FIG. 6, panels A through H, illustrate the removal of 13-HPODE and 15-HPETE by apo A-I from LDL. Freshly isolated LDL (1 mg/ml) was incubated alone (LDL sham), or with apo A-I (100 μg/ml) in M199 for 2 hrs, with gentle mixing. For controls, 100 μg/ml apo A-I was incubated alone in M 199 for 2 hrs (A-I Sham, Panel A and Panel E) or 1 mg/ml freshly isolated LDL was incubated alone in M 199 for 2 hrs (LDL Sham, Panel B and Panel F) with gentle mixing at 37° C. The LDL and apo A-I were then re-isolated by centrifugation using Millipore molecular weight cut-off filters (100 kDa). Lipids were extracted from apo A-I and from LDL and were analyzed by reverse phase HPLC.
High performance reverse phase liquid chromatography (RP-HPLC) was conducted according to the methods of Ames and colleagues (Yamamoto and Ames (1987) Free Rad. Biol. Med. 3: 359-361), Kambayashi and colleagues (Kambayashi et al. (1997) J. Biochem. 121: 425-431), and Alex Sevanian (personal communication). In brief, the analyses were performed by injecting isolated lipids resuspended in mobile solvent onto the column and eluting with a flow rate of 1.0 ml/min. Detection of fatty acid oxidation products was performed by UV absorbance with a diode array detector (Beckman Instruments) scanning from 200 to 350 nm or with an evaporative light scattering detector (SEDEX 55, France). […]

For “apo A-I: Human apo A-I from Sigma, major apolipoprotein of HDL; infused into humans as apo A-I/phosphatidylcholine discs”, the “removal of HPODE and HPETE from freshly isolated LDL” value was “effectively removed”.
